Experimental data from patent US20050049273A1, “Acridone derivatives as anti-herpesvirus agents” (priority 2003, published 2005).

Columns and labels:
[1] = system: Epstein-Barr Virus (EBV) early antigen; conditions: published work; cited from earlier work
HSV-1 = HSV-1 viral yield-reduction assay in Vero cells; type: cell-based, HSV-1 (KOS); conditions: Human alphaherpesvirus 1, Vero, read-out: ED50 HSV-1
Experimental: (§1) Three types of antiviral assay were used for HSV studies. For plaque-elimination, Vero cells (70000 per cm^2) were infected with 50-100 PFU for 30 minutes with occasional agitation. The inoculate was replaced with medium containing 1% (v/v) fetal calf serum and supplemented with test agents as indicated (see below). After two days of culture, cells were processed using crystal violet staining and plaques were scored by visual examination (FIG. 3). For examination of anti-HSV activity in parallel cultures during biochemical experiments, the progeny virus obtained from cells and from the culture medium at 23 hours post-infection was determined by limiting dilution on Vero cells (FIG. 5A). Macroscopic viral plaques were scored after two days of incubation in medium containing 1% (w/v) carboxymethylcellulose and 0.5% (v/v) fetal calf serum. For ED50 measurements, the concentration of compound that reduced a single-cycle of viral yield by 50% relative to the control and under the specified condition was interpolated from dose-response graphs (FIG. 4, Table 1). Over the course of ten independent experiments, the mean cell-associated viral yield was 180 PFU per cell (SD=80) and 10 PFU per cell (SD=5) for HSV-1 and HSV-2 respectively. The percent viral release (into the culture medium) was 16 (SD=7) and 0.9 (SD=0.6) for HSV-1 and HSV-2 respectively. These virologic parameters were independent of viral load and serum concentration.

HSV-2 [2] = assay: HSV-2 viral yield-reduction assay in Vero cells; type: cell-based, HSV-2 (strain 186); conditions: Human alphaherpesvirus 2, Vero, read-out: ED50 HSV-2
Experimental: as §1

HCMV [3] = assay: HCMV plaque-elimination assay in HEL cells; type: cell-based, HCMV (Towne)
Experimental: Virus and cell growth inhibition assays. Established virus culture techniques were used (E.-S. Huang, and T Kowalnick, Diagnosis of human cytomegalovirus infection: laboratory approaches, in Molecular Aspects of Human Cytomegalovirus Diseases (Becker,Y., Daria, G., and Huang, E.-S. eds.), Springer-Verlag, Berlin, pp. 225-255 (1993); Akanitapichat et al., Antiviral Research 45: 123-134 (2000)) but with the following modifications. For the HCMV plaque-elimination assay, HEL cells were plated in standard medium at 60,000 per cm^2 and infected the following day with 50-100 PFU HCMV for 90 minutes with occasional agitation. The inoculate was replaced with maintenance medium containing 5% (v/v) fetal calf serum and test agents as indicated (see below). After an additional 6-10 days of culture, cells were fixed with formal saline (10% formalin in phosphate-buffered saline; PBS), stained with 0.1% (w/v) toluidine blue in PBS and plaques were scored using an inverted light microscope at 40x magnification (FIGS. 2A and 3). For ED50 determination, the value was interpolated from dose-response data and is the concentration of compound that reduced plaque formation by 50% relative to control under the specified condition.

[4] = Vero cell growth inhibition (Sulforhodamine B protein-dye binding); type: cell-based, African green monkey; conditions: African green monkey; cell growth inhibition, two days of continuous treatment; read-out: CC50 Vero
Experimental: (§2) The effect of compounds on host cell replication (CC50), was measured using Sulforhodamine B-staining and the spectrophotometric method originally developed for the NCIs's in vitro anti-cancer drug screening program (P. Skehan et al., J. Natl. Cancer. Inst. 82, 1107-1112 (1990)). The CC50 value is the concentration of compound that inhibited actively replicating cells by 50% of control respectively after two days of continuous treatment.

Vero = assay: as above; type: cell-based, African green monkey
Experimental: as §2

[5] = HEL cell growth inhibition (Sulforhodamine B protein-dye binding); type: cell-based, human; conditions: human; cell growth inhibition, two days of continuous treatment
Experimental: as §2

HEL = assay: as above; type: cell-based, human; conditions: at 50 μM
Experimental: as §2

HSV-2 [6] = assay: HSV-2 plaque-elimination assay in Vero cells; type: cell-based, HSV-2 (strain 186); conditions: 100 μM, data not shown
Experimental: as §1

HCMV [7] = assay: HCMV cytopathogenicity (CPE) reduction assay in HEL cells; type: cell-based, HCMV (Towne)
Description: (§3) To examine whether pre-treatment of cells influenced anti-HCMV activity of 1-hydroxy-3,7-dimethoxyacridone (2), a cytopathogenicity (CPE) reduction assay was used. The protocol was like the plaque-elimination assay except HEL cells were replicated in test compound (3-12 days or from 1-4 passages) prior to infection, cultures were infected with 500-1000 PFU HCMV and after five days, cells were stained with 0.8% (w/v) crystal violet in 50% ethanol in order to achieve contrast for photography.

[8] = system: an assortment of human tumor cell lines; assay: Replication of human tumor cell lines; type: cell-based; conditions: at 50 μM, data not shown
Experimental: as §2

HEL Cells = assay: HEL cells replicated in presence of compound for 12 days (morphology, replication rate); type: cell-based, human; conditions: 0.5 or five micromolar for 12 days (four passages)
Description: HEL Cells were replicated in the presence of either 0.5 or five micromolar compound 2 for 12 days (four passages) then they were compared to untreated HEL cells as a host for HCMV replication in the presence or absence of the drug. […] Cultures were infected with ten-times the viral load used for plaque assay and were fixed, stained and photographed after seven days of infection (panel B). A detailed method is described in the examples below. The horizontal rows labeled as HEL, HEL (0.5) and HEL (5.0) represent cells cultured in the absence or presence of 0.5 and 5 micromolar 2 respectively. Labeled columns indicate mock-infected (M), infected (I) and treated after viral infection with the same two concentrations of the compound.
as §3

| Compound | concentration blocking activation of EBV early antigen [1] | EC50 (HSV-1) [µM] | EC50 (HSV-2 [2]) [µM] | EC50 (HCMV [3]; Human betaherpesvirus 5, HEL, read-out: ED50 HCMV) [µM] | selectivity as anti-HCMV agent (HCMV [3]; cell replication vs HCMV ED50) | CC50 at 2 days [4] [µM] | inhibition of Vero cell replication (Vero; at 50 μM) | percent inhibition observed at the highest concentration tested, Vero growth (Vero; number in parenthesis, highest concentration tested) [%] | CC50 at 2 days [5] [µM] | inhibition of HEL cell replication (HEL) | effect on HSV at highest concentration tested (HSV-2 [6]) | amelioration of HCMV cytopathogenicity after pre-treatment (HCMV [7]; HEL cells cultured 12 days in 0.5 μM before infection) | protective effect against HCMV cytopathogenicity after pre-treatment (HCMV [7]; HEL cells cultured 12 days in 5 μM before infection) | protection against HCMV cytopathogenicity (HCMV [7]; higher viral loads, with or without pretreatment of HEL cells) | inhibition of human tumor cell line replication [8] | effect on cell morphology and cell viability (HEL Cells) |
| --- | --- | --- | --- | --- | --- | --- | --- | --- | --- | --- | --- | --- | --- | --- | --- | --- |
| 5-hydroxynoracronicine | submicromolar concentration | – | – | – | – | – | – | – | – | – | – | – | – | – | – | – |
| COc1cc(O)c2c(=O)c3cc(OC)ccc3[nH]c2c1 [Compound 2, 3,7-dimethoxy-1-hydroxy-acridone] | – | > 50 | > 50 | 1.4 | greater than 35 fold | > 50 | inactive | 7 | > 50 | inactive | without effect on HSV | some amelioration of HCMV cytopathogenicity | even apparent in the absence of sustained treatment post-infection | did not protect against HCMV cytopathogenicity unless HEL cells were pretreated prior to viral infection | inactive | no effect on cell morphology or cell viability |
